Measured values as given in patent US20150352196A1, “Methods and Pharmaceutical Compositions for Prevention of Aging-Related Lesions” (INSERM (INSTITUT NATIONAL DE LA SANTÉ ET DE LA RECHERCHE …, priority 2012, published 2015).

Assays:
Assay type in all cases: cell-based
[1] = test system: mouse smooth muscle cells; experiment: mitogenic effect of IGF-1 on mouse smooth muscle cells in vitro; conditions: IGF-1 stimulated
PI3kinase/Akt pathway = experiment: FOXO reporter in transfected HEK cells exposed to IGF-1; conditions: HEK cells transfected with FOXO reporter
Text: In addition, the inventors transfected HEK cells by a FOXO reporter measuring the activity of the Pl3kinase/Akt pathway downstream of IGF-1 receptor.

calpain = calpain activity assays in cell lines expressing IGF-1 receptor after exposure to IGF-1; conditions: including immortalized podocytes
Text: Inventors first focused their work on somatotropic axis and particularly IGF-1 receptor role in calpain activation. […] Calpain activity assays developed in the laboratory have been performed in several cell lines expressing IGF-1 receptor (podocyte lines, splenocytes, mesangial cells) after exposure to IGF-1.

Row | Substance | mitogenic effect of IGF-1 [1] | activity of the PI3kinase/Akt pathway downstream of IGF-1 receptor (FOXO reporter) (PI3kinase/Akt pathway) | calpain activity (calpain)
1 | (2Z)-3-(4-iodophenyl)-2-mercapto-2-Propenoic acid, 3-(4-iodophenyl)-2-mercapto-(Z)-2-propenoic acid [PD-150606] | blunted partly but significantly | inhibited significantly | –
2 | IGF-1: ligand of the IGF-1 receptor, somatotropic axis; used to stimulate cell lines | – | – | increase calpain activity in a dose- and time-dependent manner
